Data reported in ChEMBL document CHEMBL5214931, “Recent advances in combretastatin A-4 codrugs for cancer therapy” (Eur J Med Chem, 2022).

What was measured:
A549 [1] = test: Cytotoxicity against human A549 cells assessed as cell growth inhibition measured after 48 hrs by MTT assay; format: functional, cell-based; conditions: A549, 48 h
HepG2 [2] = test: Cytotoxicity against human HepG2 cells assessed as cell growth inhibition measured after 48 hrs by MTT assay; format: functional, cell-based; conditions: HepG2, 48 h
HeLa = test: Cytotoxicity against human HeLa cells assessed as cell growth inhibition; format: functional, cell-based
MGC-803 [3] = test: Cytotoxicity against human MGC-803 cells assessed as cell growth inhibition; format: functional, cell-based
HepG2 [4] = test: Cytotoxicity against human HepG2 cells assessed as cell growth inhibition; format: functional, cell-based
A549 [5] = test: Cytotoxicity against human A549 cells assessed as cell growth inhibition; format: functional, cell-based
MDA-MB-231 = test: Cytotoxicity against human MDA-MB-231 cells assessed as cell growth inhibition; format: functional, cell-based
MGC-803 [6] = test: Antitumor activity against human MGC-803 cells xenografted in mouse assessed as inhibition of tumor growth at 50 mg/kg, po administered relative to control; format: functional; conditions: read-out: TGI
PANC-1 = test: Cytotoxicity against human PANC-1 cells assessed as cell growth inhibition measured after 72 hrs XTT assay; format: functional, cell-based; conditions: PANC-1, 72 h
PC-3 = test: Cytotoxicity against human PC-3 cells assessed as cell growth inhibition measured after 72 hrs XTT assay; format: functional, cell-based; conditions: PC-3, 72 h
[7] = Phototoxicity against rat AY-27 cells assessed as cell growth inhibition incubated for 2 hrs followed by diode laser illumination in presence of HAL by MTT assay relative to control; format: functional; set-up: scale not given: the % may be the effect or the level left
MCF7 = test: Cytotoxicity against human MCF7 cells assessed as cell growth inhibition by MTT assay; format: functional, cell-based
Estrogen receptor = biological target: T1, Estrogen receptor (Homo sapiens, UniProt P03372); test: Inhibition of human recombinant ERalpha expressed in baculovirus expression system measured after 20 mins by fluorescent polarisation Assay
T1 sequence (P03372 whole entry): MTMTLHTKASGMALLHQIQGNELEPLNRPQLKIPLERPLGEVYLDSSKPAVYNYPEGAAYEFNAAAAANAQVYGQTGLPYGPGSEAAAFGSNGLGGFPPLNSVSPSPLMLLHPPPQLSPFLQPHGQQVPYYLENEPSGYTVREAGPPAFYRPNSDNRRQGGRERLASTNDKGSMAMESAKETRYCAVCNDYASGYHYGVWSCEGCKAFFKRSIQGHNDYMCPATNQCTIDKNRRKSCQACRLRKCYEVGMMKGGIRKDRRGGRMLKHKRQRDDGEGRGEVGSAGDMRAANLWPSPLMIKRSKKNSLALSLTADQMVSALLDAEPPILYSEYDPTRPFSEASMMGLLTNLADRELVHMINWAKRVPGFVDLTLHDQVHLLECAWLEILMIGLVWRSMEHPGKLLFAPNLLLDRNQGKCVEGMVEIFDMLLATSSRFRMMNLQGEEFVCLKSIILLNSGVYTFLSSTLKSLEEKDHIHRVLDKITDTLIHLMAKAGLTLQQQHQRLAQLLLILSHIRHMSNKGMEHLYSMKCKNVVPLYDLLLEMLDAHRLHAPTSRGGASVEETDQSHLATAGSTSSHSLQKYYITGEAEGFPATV

Estrogen receptor beta = Estrogen receptor beta (Homo sapiens, UniProt Q92731); test: Inhibition of human recombinant ERbeta expressed in baculovirus expression system measured after 20 mins by fluorescent polarisation Assay
Sequence of Estrogen receptor beta (Q92731 whole entry): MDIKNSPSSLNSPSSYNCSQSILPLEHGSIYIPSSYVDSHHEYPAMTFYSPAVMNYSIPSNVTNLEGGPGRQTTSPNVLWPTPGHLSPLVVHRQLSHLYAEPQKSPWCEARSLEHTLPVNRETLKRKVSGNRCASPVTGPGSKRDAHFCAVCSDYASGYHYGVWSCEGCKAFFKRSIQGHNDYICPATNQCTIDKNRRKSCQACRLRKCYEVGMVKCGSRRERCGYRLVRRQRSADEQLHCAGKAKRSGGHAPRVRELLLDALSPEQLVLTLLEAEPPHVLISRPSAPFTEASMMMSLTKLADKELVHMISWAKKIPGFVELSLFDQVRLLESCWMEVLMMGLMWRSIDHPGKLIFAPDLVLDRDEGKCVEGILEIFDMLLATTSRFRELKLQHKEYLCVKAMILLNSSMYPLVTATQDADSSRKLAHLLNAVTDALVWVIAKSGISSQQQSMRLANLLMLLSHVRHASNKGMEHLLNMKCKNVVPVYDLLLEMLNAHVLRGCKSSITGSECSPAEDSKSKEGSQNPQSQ

MDA-MB-468 = test: Phototoxicity against human MDA-MB-468 cells assessed as cell growth inhibition incubated for 24 hrs followed by LED illumination by MTT assay; format: functional, cell-based; conditions: MDA-MB-468, light or radiation study

| SMILES | IC50 (A549 [1]) [nM] | IC50 (HepG2 [2]) [nM] | IC50 (HeLa) [nM] | IC50 (A549 [5]) [nM] | IC50 (MDA-MB-231) [nM] | further results |
| --- | --- | --- | --- | --- | --- | --- |
| COc1ccc(/C=C\c2cc(OC)c(OC)c(OC)c2)cc1OC(=O)C1CC(C)(C)N(O)C1(C)C (stereo not drawn) | 42 | 1830 | – | – | – | – |
| COc1ccc(/C=C\c2cc(OC)c(OC)c(OC)c2)cc1OC(=O)Cn1cc(F)c(=O)[nH]c1=O | – | – | 31 | < 0.3 | 400 | IC50 (MGC-803 [3]): < 0.3 nM; IC50 (HepG2 [4]): 22.8 nM; inhibition in vivo at 50 mg/kg (MGC-803 [6]): 75% |
| COc1ccc(/C=C\c2cc(OC)c(OC)c(OC)c2)cc1OC(=O)CCn1cc(F)c(=O)[nH]c1=O | – | – | 30 | < 0.3 | 80600 | IC50 (MGC-803 [3]): < 0.3 nM; IC50 (HepG2 [4]): 7330 nM |
| CC[C@H](C)[C@H](NC(=O)[C@@H](N)CC(C)C)C(=O)N[C@@H](Cc1ccc(O)cc1)C(=O)N1CCC[C@H]1C(=O)N[C@@H](CCCNC(=N)N)C(=O)N[C@@H](CCCNC(=N)N)C(=O)NCCCCCC(NC(=O)[C@@H](CCCNC(=N)N)NC(=O)[C@@H](CCCNC(=N)N)NC(=O)[C@@H]1CCCN1C(=O)[C@H](Cc1ccc(O)cc1)NC(=O)[C@@H](NC(=O)[C@@H](N)CC(C)C)[C@@H](C)CC)C(=O)NC(CCCCNC(=O)C(CCCCNC(=O)[C@H](CCCNC(=N)N)NC(=O)[C@H](CCCNC(=N)N)NC(=O)[C@@H]1CCCN1C(=O)[C@H](Cc1ccc(O)cc1)NC(=O)[C@@H](NC(=O)[C@@H](N)CC(C)C)[C@@H](C)CC)NC(=O)[C@H](CCCNC(=N)N)NC(=O)[C@H](CCCNC(=N)N)NC(=O)[C@@H]1CCCN1C(=O)[C@H](Cc1ccc(O)cc1)NC(=O)[C@@H](NC(=O)[C@@H](N)CC(C)C)[C@@H](C)CC)C(=O)NCCC(=O)NC(CCCCNC(=O)CCOCCOCCNC(=O)CCCCC(=O)Oc1cc(/C=C\c2cc(OC)c(OC)c(OC)c2)ccc1OC)C(N)=O (stereo partly drawn) | – | – | – | – | – | IC50 (PANC-1): 500 nM; IC50 (PC-3): 850 nM |
| COc1ccc(/C=C\c2cc(OC)c(OC)c(OC)c2)cc1OC(=O)C1=CC(C)(C)N(O)C1(C)C | 160 | 3270 | – | – | – | – |
| COc1ccc(/C=C\c2cc(OC)c(OC)c(OC)c2)cc1OC(=O)C1CC(C)(C)N(O)C(C)(C)C1 | 170 | 11200 | – | – | – | – |
| CCN(CC)c1ccc2c(-c3ccccc3C(=O)OCC3CCN(/C=C/C(=O)Oc4cc(/C=C\c5cc(OC)c(OC)c(OC)c5)ccc4OC)CC3)c3ccc(=[N+](CC)CC)cc-3oc2c1.[Cl-] | – | – | – | – | – | Activity [7]: 100% |
| COc1ccc(/C=C\c2cc(OC)c(OC)c(OC)c2)cc1OC(=O)N(C)CCOc1ccc(C(=C2CCC(C)CC2)c2ccc(O)cc2)cc1 (stereo not drawn) | – | – | – | – | – | IC50 (MCF7): 5.7 nM; IC50 (Estrogen receptor): 15 nM; IC50 (Estrogen receptor beta): 115 nM |
| COc1ccc(/C=C\c2cc(OC)c(OC)c(OC)c2)cc1OC(=O)C1=CC(C)(C)N(O)C(C)(C)C1 | 150 | 3580 | – | – | – | – |
| COc1ccc(/C=C\c2cc(OC)c(OC)c(OC)c2)cc1O [COMBRETASTATIN A4] | 35 | 2390 | 400 | 2.54 | 3.3 | IC50 (MGC-803 [3]): 20.6 nM; IC50 (HepG2 [4]): 12.8 nM; IC50 (MDA-MB-468): 16 nM |
| O=c1[nH]cc(F)c(=O)[nH]1 [FLUOROURACIL] | – | – | 113 | 34900 | 97000 | – |
| CCc1c2c(nc3ccc(OC(=O)N4CCC(N5CCCCC5)CC4)cc13)-c1cc3c(c(=O)n1C2)COC(=O)[C@]3(O)CC [IRINOTECAN] | 2000 | 34100 | – | – | – | – |
